Results reported in ChEMBL document CHEMBL5724709, “EUbOPEN Chemogenomics Library - IncuCyte” (2024).

Experiments:
Assay type in all cases: toxicity, cell-based
Fibroblast = experiment: Incucyte cell viability with human fibroblast; settings: 24 h, 10 µM, compound concentration 10 uM
U2OS = experiment: Incucyte cell viability with U2OS; settings: human, 24 h, 10 µM, compound concentration 10 uM
HEK-293T = experiment: Incucyte cell viability with HEK293T; settings: human, 24 h, 10 µM, compound concentration 10 uM
Note: unitless GR value; below 1 slowed growth and below 0 cell loss.

Structure (SMILES)	Growth Rate (Fibroblast; replicate number 1)	Growth Rate (Fibroblast; replicate number 2)	Growth Rate (U2OS; replicate number 1)	Growth Rate (U2OS; replicate number 2)	Growth Rate (HEK-293T; replicate number 1)	Growth Rate (HEK-293T; replicate number 2)
COc1cc(Nc2ncc(F)c(Nc3ccc4c(n3)N(COP(=O)([O-])[O-])C(=O)C(C)(C)O4)n2)cc(OC)c1OC.O.O.O.O.O.O.[Na+].[Na+] [FOSTAMATINIB DISODIUM]	0.41	-0.16	-0.2	-0.05	0.05	0.51
C[C@]12CC[C@@H]3c4ccc(O)cc4C[C@@H](CCCCCCCCC[S+]([O-])CCCC(F)(F)C(F)(F)F)[C@H]3[C@@H]1CC[C@@H]2O (stereo partly specified) [FULVESTRANT]	1	–	0.86	0.65	0.5	0.53
C=C(C)[C@@H](CC=C(C)C)C[C@@]12C[C@@H](CC=C(C)C)C(C)(C)[C@@](CC=C(C)C)(C(=O)C(C(=O)c3ccc(O)c(O)c3)=C1O)C2=O [GARCINOL]	0.23	1	1	0.75	0.69	0.83
O=C(NO)c1ccc(CN(c2cnccn2)c2cnccn2)cc1 [KA-2507]	1	0.97	-0.27	0.83	1	–
C[C@]12O[C@H](C[C@]1(O)CO)n1c3ccccc3c3c4c(c5c6ccccc6n2c5c31)CNC4=O [LESTAURTINIB]	1	–	0.59	0.46	0.16	0.41
CCNC(=O)c1noc(-c2cc(C(C)C)c(O)cc2O)c1-c1ccc(CN2CCOCC2)cc1 [LUMINESPIB]	-0.02	-0.27	-0.21	0	-0.29	-0.15
CNc1ncc2cc(-c3cc(NC(=O)NCCC(C)(C)C)c(F)cc3C)c(C)nc2n1 [LY-3009120]	-0.76	-0.55	-0.28	0.07	0.3	0.63
CC#C[C@]1(O)CC[C@H]2[C@@H]3CCC4=CC(=O)CCC4=C3[C@@H](c3ccc(N(C)C)cc3)C[C@@]21C [MIFEPRISTONE]	1	–	0.84	0.66	0.49	1
Nc1ccccc1NC(=O)c1ccc(CNc2nccc(-c3cccnc3)n2)cc1 [MOCETINOSTAT]	1	-0.28	-0.13	0.28	0.33	0.39
CCCCN(Cc1ccc(C(=O)NO)cc1)C(=O)Nc1ccccc1 [NEXTURASTAT A]	1	-0.22	-0.18	0.6	1	–
CC(C)(F)C[C@H](N[C@@H](c1ccc(-c2ccc(S(C)(=O)=O)cc2)cc1)C(F)(F)F)C(=O)NC1(C#N)CC1 [ODANACATIB]	0.39	1	0.65	1	0.9	0.87
CC(C)c1cc(C(=O)N2Cc3ccc(CN4CCN(C)CC4)cc3C2)c(O)cc1O [ONALESPIB]	0.29	0.25	-0.07	0.05	-0.26	-0.15
Nc1nc2cc(CC[C@H]3C[C@@H](n4ccc5c(N)ncnc54)[C@H](O)[C@@H]3O)ccc2cc1Br [ONAMETOSTAT]	0.43	0.06	0.19	1	-0.14	-0.01
COc1ccc2c(c1)OC(C)(C)C(c1ccccc1)C2c1ccc(OCCN2CCCC2)cc1 (stereo unspecified) [ORMELOXIFENE]	1	0.9	1	0.75	0.93	0.92
CC(=O)N1CCC(Nc2cc(C(=O)NC[C@H](O)CN3CCc4ccccc4C3)ncn2)CC1 [PEMRAMETOSTAT]	1	–	0.26	1	0.9	1
CC(C)N(C[C@H]1O[C@@H](n2cnc3c(N)ncnc32)[C@H](O)[C@@H]1O)[C@H]1C[C@@H](CCc2nc3cc(C(C)(C)C)ccc3[nH]2)C1 [PINOMETOSTAT]	1	–	1	0.85	0.61	0.77
COc1cc(Nc2ncc(F)c(Nc3ccc4c(n3)NC(=O)C(C)(C)O4)n2)cc(OC)c1OC [R-406]	-0.02	-0.68	-0.31	-0.21	0.1	0.27
O=C(CCCCCCNC(=O)c1cnc(N(c2ccccc2)c2ccccc2)nc1)NO [RICOLINOSTAT]	0.23	-0.16	0	0.16	0.73	1
C/C=C1\NC(=O)[C@H]2CSSCC/C=C/[C@H](CC(=O)N[C@H](C(C)C)C(=O)N2)OC(=O)[C@H](C(C)C)NC1=O [ROMIDEPSIN]	0.96	-0.41	1	0.29	0.73	–
Nc1ncnc2c1ncn2[C@@H]1O[C@H](C[C@@H](N)CC[C@H](N)C(=O)O)[C@@H](O)[C@H]1O [SINEFUNGIN]	0.66	-0.28	0.54	1	0.85	0.88
Cc1ccc(C(=O)Nc2ccc(S(=O)(=O)[O-])c3cc(S(=O)(=O)[O-])cc(S(=O)(=O)[O-])c23)cc1NC(=O)c1cccc(NC(=O)Nc2cccc(C(=O)Nc3cc(C(=O)Nc4ccc(S(=O)(=O)[O-])c5cc(S(=O)(=O)[O-])cc(S(=O)(=O)[O-])c45)ccc3C)c2)c1.[Na+].[Na+].[Na+].[Na+].[Na+].[Na+] [SURAMIN HEXASODIUM]	0.42	0.59	1	–	0.7	0.83
CCN(c1cc(-c2ccc(CN3CCOCC3)cc2)cc(C(=O)NCc2c(C)cc(C)[nH]c2=O)c1C)C1CCOCC1 [TAZEMETOSTAT]	0.54	–	0.43	0.87	0.68	0.82
O=C(CCCCCCC(=O)Nc1ccc([C@H]2O[C@@H](CSc3nc(-c4ccccc4)c(-c4ccccc4)o3)C[C@@H](c3ccc(CO)cc3)O2)cc1)NO [TUBACIN]	1	-0.34	1	0.73	0.85	1
Nc1cc(F)ccc1NC(=O)c1ccc(CNC(=O)/C=C/c2cccnc2)cc1 [TUCIDINOSTAT]	1	–	-0.5	0.82	1	–
CC(=O)O[C@]1(C(C)=O)CC[C@H]2[C@@H]3CCC4=CC(=O)CCC4=C3[C@@H](c3ccc(N(C)C)cc3)C[C@@]21C [ULIPRISTAL ACETATE]	0.18	0.99	0.94	0.78	0.78	0.96
CC(C)Nc1cc(-c2c[nH]c(C(=O)N[C@H](CO)c3cccc(Cl)c3)c2)c(Cl)cn1 [ULIXERTINIB]	0.93	0.08	0.68	0.74	1	–
Cc1cc(C)c(CNC(=O)c2cc(Cl)c3c(c2C)O[C@@](C)([C@H]2CC[C@H](N(C)C)CC2)O3)c(=O)[nH]1 [VALEMETOSTAT]	1	0.46	0.4	0.98	0.77	0.96
COc1cc2c(Nc3ccc(Br)cc3F)ncnc2cc1OCC1CCN(C)CC1 [VANDETANIB]	0.22	-0.22	-0.56	0.01	-0.15	0.26
Cc1nc(-c2cnc(NC(C)C)n(C)c2=O)ccc1Oc1ccnc(-c2cnn(C)c2)c1 [VIMSELTINIB]	0.29	-0.35	0.42	0.46	0.39	0.02
